Laboratory results published in PMC6957260 (European journal of medicinal chemistry, 2013).

What was measured:
[1] = target: T1, rat TRPV1 (Rattus norvegicus, UniProt O35433); details: cited from earlier work
[2] = test system: hTRPV1; details: hTRPV1 in HEK-293 cells, cited from earlier work; for EC50: read-out: agonism EC50
[3] = target: T1, rat TRPV1; assay: functional 45Ca2+ uptake assay, agonism, rat TRPV1 in CHO cells; assay type: cell-based; details: for fold less potency for agonism compared to the parent compound: rat TRPV1, parents 2 and 3, respectively
[4] = target: human TRPV1 (Homo sapiens, UniProt Q8NER1); assay type: cell-based
Sequence of human TRPV1 (Q8NER1 whole entry): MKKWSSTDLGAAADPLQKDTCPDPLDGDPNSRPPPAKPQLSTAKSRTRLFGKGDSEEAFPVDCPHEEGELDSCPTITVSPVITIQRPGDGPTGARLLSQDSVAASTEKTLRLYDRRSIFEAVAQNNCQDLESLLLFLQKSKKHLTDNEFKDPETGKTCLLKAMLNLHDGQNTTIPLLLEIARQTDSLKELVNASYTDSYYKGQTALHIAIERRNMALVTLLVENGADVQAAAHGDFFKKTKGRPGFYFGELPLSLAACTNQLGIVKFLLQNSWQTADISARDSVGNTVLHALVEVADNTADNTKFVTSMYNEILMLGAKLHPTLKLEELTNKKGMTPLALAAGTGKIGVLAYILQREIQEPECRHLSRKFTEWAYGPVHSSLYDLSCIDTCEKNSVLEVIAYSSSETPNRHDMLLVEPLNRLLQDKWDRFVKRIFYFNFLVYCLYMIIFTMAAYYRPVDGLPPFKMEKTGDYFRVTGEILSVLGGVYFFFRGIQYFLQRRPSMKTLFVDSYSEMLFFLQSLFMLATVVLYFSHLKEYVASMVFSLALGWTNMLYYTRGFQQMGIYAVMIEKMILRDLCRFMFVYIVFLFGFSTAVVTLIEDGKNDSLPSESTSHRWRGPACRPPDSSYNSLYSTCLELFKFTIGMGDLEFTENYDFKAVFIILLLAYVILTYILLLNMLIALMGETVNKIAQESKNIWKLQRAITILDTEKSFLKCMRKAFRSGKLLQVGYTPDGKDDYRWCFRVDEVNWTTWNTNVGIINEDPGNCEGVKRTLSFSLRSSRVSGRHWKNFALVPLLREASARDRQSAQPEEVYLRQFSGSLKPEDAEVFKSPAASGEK

[5] = target: T1, rat TRPV1; assay: competitive binding assay with [3H]RTX, rat TRPV1 in CHO cells; details: parents 2 and 3, respectively
[6] = target: T1, rat TRPV1; assay type: cell-based

T1 sequence (O35433 whole entry): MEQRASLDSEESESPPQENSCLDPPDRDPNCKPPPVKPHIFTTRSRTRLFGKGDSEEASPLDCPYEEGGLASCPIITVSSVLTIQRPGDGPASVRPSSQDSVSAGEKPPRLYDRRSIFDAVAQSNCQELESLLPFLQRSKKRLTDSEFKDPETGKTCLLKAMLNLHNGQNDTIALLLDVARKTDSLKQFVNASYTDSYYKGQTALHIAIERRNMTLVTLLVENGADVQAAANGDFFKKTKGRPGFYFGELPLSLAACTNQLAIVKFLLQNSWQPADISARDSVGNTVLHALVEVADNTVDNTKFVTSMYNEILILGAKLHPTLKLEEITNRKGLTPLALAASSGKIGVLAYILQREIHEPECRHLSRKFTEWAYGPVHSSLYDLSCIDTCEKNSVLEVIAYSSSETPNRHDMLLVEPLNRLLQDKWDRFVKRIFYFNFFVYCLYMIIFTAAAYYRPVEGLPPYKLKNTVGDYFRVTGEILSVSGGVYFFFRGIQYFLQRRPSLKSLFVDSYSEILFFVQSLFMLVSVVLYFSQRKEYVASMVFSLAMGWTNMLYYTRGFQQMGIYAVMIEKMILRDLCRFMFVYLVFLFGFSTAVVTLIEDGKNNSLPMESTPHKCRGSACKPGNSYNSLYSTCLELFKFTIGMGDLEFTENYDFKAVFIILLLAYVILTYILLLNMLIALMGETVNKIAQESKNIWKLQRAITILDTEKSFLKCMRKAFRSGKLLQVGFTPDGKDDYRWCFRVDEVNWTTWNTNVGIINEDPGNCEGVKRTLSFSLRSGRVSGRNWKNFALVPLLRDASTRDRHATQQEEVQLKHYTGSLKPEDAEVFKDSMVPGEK

C=C(C)[C@@]12C[C@@H](C)C34OC(Cc5ccccc5)(OC1[C@@H]3C=C(COC(=O)Cc1cc(Br)c(N)c(OC)c1)C[C@]1(O)C(=O)C(C)=C[C@@H]41)O2 (some centres unmarked) [5-bromo-4-amino RTX]
fold more potent than 5′-iodo RTX (antagonism) [1]: 4.5 fold

C=C(C)[C@]12C[C@@H](C)[C@@]34O[C@](Cc5ccccc5)(O[C@@H]1[C@@H]3C=C(COC(=O)Cc1ccc(O)c(OC)c1)C[C@]1(O)C(=O)C(C)=C[C@@H]41)O2 [Compound 1, Resiniferatoxin, reference compound]
EC50 [2]: 19 pM

C=C(C)[C@]12C[C@@H](C)[C@@]34O[C@](Cc5ccccc5)(O[C@@H]1[C@@H]3C=C(COC(=O)Oc1cc(F)c(O)c(OC)c1)C[C@]1(O)C(=O)C(C)=C[C@@H]41)O2 [Compound 57]
fold less potent than RTX (functional activity, agonism) ([3]; rTRPV1): ca. 5 fold

C=C(C)[C@]12C[C@@H](C)[C@@]34O[C@](Cc5ccccc5)(O[C@@H]1[C@@H]3C=C(COC(=O)Oc1cc(Cl)c(O)c(OC)c1)C[C@]1(O)C(=O)C(C)=C[C@@H]41)O2 [Compound 58]
mean % of agonism relative to capsaicin [3]: a The mean % of agonism relative to capsaicin: 13% for 58, 89% for 63, 83% for 64.
mean % of agonism relative to capsaicin [4]: a The mean % of agonism relative to capsaicin: 52% for 58, 90% for 64.

C=C(C)[C@]12C[C@@H](C)[C@@]34O[C@](Cc5ccccc5)(O[C@@H]1[C@@H]3C=C(COC(=O)Oc1cc(I)c(O)c(OC)c1)C[C@]1(O)C(=O)C(C)=C[C@@H]41)O2 [Compound 60]
fold more potent than RTX (agonism) [2]: ca. 4 fold
EC50 [2]: 4.7 pM

C=C(C)[C@]12C[C@@H](C)[C@@]34O[C@](Cc5ccccc5)(O[C@@H]1[C@@H]3C=C(COC(=O)Oc1ccc(N)c(OC)c1)C[C@]1(O)C(=O)C(C)=C[C@@H]41)O2 [Compound 62]
fold less potency in binding affinity compared to the parent compound [5]: 4.5 fold
fold less potency for agonism compared to the parent compound [3]: 4 fold

C=C(C)[C@]12C[C@@H](C)[C@@]34O[C@](Cc5ccccc5)(O[C@@H]1[C@@H]3C=C(COC(=O)Oc1ccc(NS(C)(=O)=O)c(OC)c1)C[C@]1(O)C(=O)C(C)=C[C@@H]41)O2 [Compound 63]
fold less potency in binding affinity compared to the parent compound [5]: 5.5 fold
fold less potency for agonism compared to the parent compound [3]: 40 fold

C=C(C)[C@]12C[C@@H](C)[C@@]34O[C@](Cc5ccccc5)(O[C@@H]1[C@@H]3C=C(COC(=O)Oc1cc(F)c(N)c(OC)c1)C[C@]1(O)C(=O)C(C)=C[C@@H]41)O2 [Compound 64]
mean % of agonism relative to capsaicin [4]: a The mean % of agonism relative to capsaicin: 52% for 58, 90% for 64.

C=C(C)[C@]12C[C@@H](C)[C@@]34O[C@](Cc5ccccc5)(O[C@@H]1[C@@H]3C=C(COC(=O)Oc1cc(Cl)c(N)c(OC)c1)C[C@]1(O)C(=O)C(C)=C[C@@H]41)O2 [Compound 65]
fold more potent than I-RTX (antagonism) [6]: ca. 5 fold

C=C(C)[C@]12C[C@@H](C)[C@@]34O[C@](Cc5ccccc5)(O[C@@H]1[C@@H]3C=C(COC(=O)Oc1cc(Br)c(N)c(OC)c1)C[C@]1(O)C(=O)C(C)=C[C@@H]41)O2 [Compound 66]
fold more potent than I-RTX (antagonism) [6]: ca. 5 fold
